Measurements taken from patent publication US10428080B2, “TBK/IKK inhibitor compounds and uses thereof” (Merck Patent GmbH, priority 2015, dated 2019).
Structures can show the parent of a compound that is named as a salt. Where two headings read alike, the source gives them in different places.

Columns and labels:
IKKε = target: T1, IKKε (Homo sapiens, UniProt Q14164); test: IKKe Biochemical Assay; details: read-out: IKKε IC50
T1 sequence (Q14164 1-716): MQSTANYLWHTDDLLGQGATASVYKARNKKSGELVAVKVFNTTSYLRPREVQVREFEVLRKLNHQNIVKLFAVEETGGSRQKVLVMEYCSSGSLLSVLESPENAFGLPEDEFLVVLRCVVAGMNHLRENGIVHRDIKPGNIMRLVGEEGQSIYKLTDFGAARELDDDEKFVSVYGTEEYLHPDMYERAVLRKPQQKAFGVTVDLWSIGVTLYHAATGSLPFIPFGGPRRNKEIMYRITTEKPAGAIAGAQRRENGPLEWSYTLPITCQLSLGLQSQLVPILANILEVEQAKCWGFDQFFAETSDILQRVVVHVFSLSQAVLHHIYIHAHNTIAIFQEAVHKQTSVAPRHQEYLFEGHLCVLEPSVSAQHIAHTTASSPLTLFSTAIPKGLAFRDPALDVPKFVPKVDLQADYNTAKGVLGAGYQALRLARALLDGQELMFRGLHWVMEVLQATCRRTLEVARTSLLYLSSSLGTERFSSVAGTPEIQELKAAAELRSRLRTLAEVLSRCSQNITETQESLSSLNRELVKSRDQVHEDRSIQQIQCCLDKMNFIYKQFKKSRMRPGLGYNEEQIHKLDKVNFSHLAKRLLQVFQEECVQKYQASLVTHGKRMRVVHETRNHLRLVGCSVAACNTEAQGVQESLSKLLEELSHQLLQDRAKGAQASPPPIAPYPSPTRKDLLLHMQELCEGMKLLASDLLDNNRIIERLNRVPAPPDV
In short: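 Activity was measured as mobility-shift separation of phosphorylated from unphosphorylated substrate on a LabChip EZ Reader. Compound was titrated from 30 uM final in 10 points, 1:4 steps, with 1% DMSO, and enzyme plus substrate reacted 90 min at 25° C before stop buffer. Control wells held 10 uM staurosporine.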

TBK1 = target: T2, TBK1 (Homo sapiens, UniProt Q9UHD2); test: TBK Biochemical Assay; details: read-out: TBK1 IC50
T2 sequence (Q9UHD2 1-729): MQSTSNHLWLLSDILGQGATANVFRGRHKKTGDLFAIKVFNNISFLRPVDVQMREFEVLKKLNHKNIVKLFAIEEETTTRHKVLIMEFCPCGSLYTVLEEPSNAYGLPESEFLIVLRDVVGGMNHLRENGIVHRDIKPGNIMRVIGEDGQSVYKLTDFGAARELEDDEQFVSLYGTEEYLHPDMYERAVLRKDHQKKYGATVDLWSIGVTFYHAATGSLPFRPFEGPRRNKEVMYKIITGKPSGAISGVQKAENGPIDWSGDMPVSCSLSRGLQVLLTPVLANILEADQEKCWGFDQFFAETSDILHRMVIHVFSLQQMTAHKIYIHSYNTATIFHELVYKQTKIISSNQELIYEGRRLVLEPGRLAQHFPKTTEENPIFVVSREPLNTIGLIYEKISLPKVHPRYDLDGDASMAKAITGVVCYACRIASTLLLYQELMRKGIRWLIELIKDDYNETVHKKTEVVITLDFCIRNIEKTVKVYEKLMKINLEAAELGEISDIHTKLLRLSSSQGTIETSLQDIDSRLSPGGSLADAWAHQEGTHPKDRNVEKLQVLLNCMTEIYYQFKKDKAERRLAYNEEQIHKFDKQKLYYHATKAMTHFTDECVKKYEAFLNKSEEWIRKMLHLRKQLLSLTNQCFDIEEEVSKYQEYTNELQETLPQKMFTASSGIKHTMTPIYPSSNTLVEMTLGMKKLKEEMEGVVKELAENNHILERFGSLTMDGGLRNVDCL
In short: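 Caliper LabChip mobility-shift readout of substrate and product after 90 min of TBK1 reaction at 25° C and stop-buffer addition. Compounds tested in 1:4 serial dilution over 10 points from 30 uM final at 1% DMSO; staurosporine 10 uM final defines full inhibition.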

[1] = test system: phosphorylation of the IRF-3 protein in MDA-MB-468 cells; test: pIRF3 immunocytochemistry cell based assay; details: Homo sapiens
Description: The purpose of the pIRF3 immunocytochemistry cell based assay was to identify small molecules which modulates TBK/IKKe kinase activity through on target substrate phosphorylation of the IRF-3 protein. On the first day of the experiment, MDA-MB-468 cells were plated in 384 well, black, clear-bottom, Poly D lysine coated plates at a density of 5000 cells/well in 45 ul of complete DMEM and allowed to adhere overnight. On the second day compounds were added to cells at a starting concentration of 10 uM with a serial dilution of 3-fold for a total of 10 points. The cells were incubated for 1 hr at 37° C. Cells were then stimulated with Poly(I:C) at a final concentration of 10 ug/ml, and were incubated for 2 hr at 37° C. Following the incubation, media was removed from the wells and the cells were fixed with 4% PFA for 15 min at RT. Cells were washed at least 3 times with PBS, and then permeabilized with ice-cold methanol for 10 min at RT. The washing step was repeated and the cells were then blocked using 10% goat serum/1% BSA, made up in PBS and allowed to incubate at RT for 1 hr. The cells were washed again and then treated with an anti-pIRF3 antibody at 4° C. overnight (1:250 dilution of Abcam ab76493 in PBS containing 1% BSA). On the third day the primary antibody was washed off and pIRF3 was detected by adding the secondary antibody conjugated to AlexaFluor488 (1:200 dilution of secondary antibody in PBS containing 1% BSA) for 1 hr at RT. Cells were washed and then counterstained with PI/RNase staining buffer for 15 min at RT and read on the Acumen Explorer laser scanning cytometer. The percentage of phosphorylation of the IRF-3 protein was calculated using the following algorithm, a modified version of the mean half width intensity (pIRF3 staining)/(PI staining or # of cells)×100%). IC50 curves were generated using the Genedata software.

[2] = MDA-MB-468 cells, Poly(I:C) stimulation, read-out: pIRF3 IC50

Structure (SMILES) | IC50 (IKKε) | IC50 (TBK1) | IC50 [1, 2] | IC50 ([1]; MDA-MB-468, read-out: pIRF3 IC50)
COc1cc(C(=O)NNC(=O)OC(C)(C)C)ccc1-c1cc2nccc(-c3ccc(OC4CCOCC4)c(C#N)c3)c2o1 [Compound 67, N′-(4-{7-[3-Cyano-4-(tetrahydro-pyran-4-yloxy)-phenyl]-furo[3,2-b]pyridin-2-yl}-3-methoxy-benzoyl)-hydrazinecarboxylic acid tert-butyl ester] | < 100 nM | < 100 nM | 100 to 1000 nM | 
COc1cc(C(=O)N2CC3CC(C2)O3)cnc1-c1cc2nccc(-c3ccc(OC4CCOCC4)c(C#N)c3)c2o1 [Compound 435, 5-[2-[3-methoxy-5-([6-oxa-3-azabicyclo[3.1.1]heptan-3-yl]carbonyl)pyridin-2-yl]furo[3,2-b]pyridin-7-yl]-2-(oxan-4-yloxy)benzonitrile] | < 100 nM | < 100 nM | < 100 nM | 
COc1ccc(-c2ccnc3cc(-c4ccc(C(=O)N(C)C)cc4)oc23)cc1C#N [Compound 167, 4-[7-(3-Cyano-4-methoxy-phenyl)-furo[3,2-b]pyridin-2-yl]-N,N-dimethyl-benzamide] | 100 to 1000 nM | 100 to 1000 nM | 1000 to 5000 nM | 
COc1cc(C(=O)N[C@@H]2CN3CCC2CC3)ncc1-c1cc2nccc(-c3ccc(N4CC[C@H](F)C4)c(C#N)c3)c2o1 [Compound 444, 5-{7-[3-Cyano-4-((S)-3-fluoro-pyrrolidin-1-yl)-phenyl]-furo[3,2-b]pyridin-2-yl}-4-methoxy-pyridine-2-carboxylic acid (1-aza-bicyclo[2.20.2]oct-3-yl)-amide] | < 100 nM | < 100 nM | < 100 nM | 
CN(C)C(=O)c1cc(-c2cc3nccc(-c4ccc(OC5CCOCC5)c(C#N)c4)c3o2)n(C)c1 [Compound 400, 5-[7-[3-cyano-4-(oxan-4-yloxy)phenyl]furo[3,2-b]pyridin-2-yl]-N,N,1-trimethyl-1H-pyrrole-3-carboxamide] | < 100 nM | < 100 nM |  | 100 to 1000 nM
COc1cc(C(=O)NC2CCN(C(=O)OC(C)(C)C)C2)ccc1-c1cc2nccc(-c3ccc(OC4CCOCC4)c(C#N)c3)c2o1 (stereo not drawn) [Compound 125, 3-(4-{7-[3-Cyano-4-(tetrahydro-pyran-4-yloxy)-phenyl]-furo[3,2-b]pyridin-2-yl}-3-methoxy-benzoylamino)-pyrrolidine-1-carboxylic acid tert-butyl ester] | < 100 nM | < 100 nM | 100 to 1000 nM | 
COc1cc(C(=O)NCCC2CCNCC2)ccc1-c1cc2nccc(-c3ccc(OC4CCOCC4)c(C#N)c3)c2o1 [Compound 118, 4-{7-[3-Cyano-4-(tetrahydro-pyran-4-yloxy)-phenyl]-furo[3,2-b]pyridin-2-yl}-3-methoxy-N-(2-piperidin-4-yl-ethyl)-benzamide hydrochloride] | < 100 nM | < 100 nM | 100 to 1000 nM | 
CC1(O)CN(C(=O)c2ccc(-c3cc4nccc(-c5ccc(OC6CCOCC6)c(C#N)c5)c4o3)cc2)C1 [Compound 124, 5-{2-[4-(3-Hydroxy-3-methyl-azetidine-1-carbonyl)-phenyl]-furo[3,2-b]pyridin-7-yl}-2-(tetrahydro-pyran-4-yloxy)-benzonitrile] | < 100 nM | < 100 nM | 1000 to 5000 nM | 

More lines, main results first:

IC50 (IKKε) | IC50 (TBK1) | IC50 [1, 2] | Structure (SMILES) | IC50 ([1]; MDA-MB-468, read-out: pIRF3 IC50)
< 100 nM | < 100 nM | < 100 nM | COc1cc(C(=O)N2CCN(C)CC2)cnc1-c1cc2nccc(-c3ccc(N4CC[C@@H](F)C4)c(C#N)c3)c2o1 [Compound 462, 2-(3(R)-fluoropyrrolidin-1-yl)-5-(2-[3-methoxy-5-[(4-methylpiperazin-1-yl)carbonyl]pyridin-2-yl]furo[3,2-b]pyridin-7-yl)benzonitrile] | 
< 100 nM | < 100 nM | < 100 nM | COc1cc(C(=O)N(C)CCO)cnc1-c1cc2nccc(-c3ccc(OC4CCOCC4)c(C#N)c3)c2o1 [Compound 328, 6-[7-[3-cyano-4-(oxan-4-yloxy)phenyl]furo[3,2-b]pyridin-2-yl]-N-(2-hydroxyethyl)-5-methoxy-N-methylpyridine-3-carboxamide] | 
< 100 nM | < 100 nM | 100 to 1000 nM | COc1cc(C(=O)N[C@H]2[C@@H]3C[C@H]2CN(C)C3)ccc1-c1cc2nccc(-c3ccc(OC4CCOCC4)c(C#N)c3)c2o1 (single isomer, unassigned) [Compound 365] | 
< 100 nM | < 100 nM | < 100 nM | COc1cc(C(=O)N(C)CCO)ncc1-c1cc2nccc(-c3ccc(OC4CCOCC4)c(C#N)n3)c2o1 [Compound 376, 5-[7-[6-cyano-5-(oxan-4-yloxy)pyridin-2-yl]furo[3,2-b]pyridin-2-yl]-N-(2-hydroxyethyl)-4-methoxy-N-methylpyridine-2-carboxamide] | 
100 to 1000 nM | 100 to 1000 nM | 100 to 1000 nM | COc1cc(C(=O)N(C)C)cnc1-c1cc2nccc(-c3ccc(OC4CN(C)C4)c(C#N)c3)c2o1 [Compound 425, 6-(7-[3-cyano-4-[(1-methylazetidin-3-yl)oxy]phenyl]furo[3,2-b]pyridin-2-yl)-5-methoxy-N,N-dimethylpyridine-3-carboxamide] | 
< 100 nM | < 100 nM | < 100 nM | COc1cc(C(=O)N[C@@H]2[C@@H]3C[C@H]2CN(C)C3)cnc1-c1cc2nccc(-c3ccc(OC4CCOCC4)c(C#N)c3)c2o1 [Compound 398, 6-{7-[3-Cyano-4-(tetrahydro-pyran-4-yloxy)-phenyl]-furo[3,2-b]pyridin-2-yl}-5-methoxy-N-((1R,5S,6S)-3-methyl-3-aza-bicyclo[3.10.1]hept-6-yl)-nicotinamide] | 
< 100 nM | < 100 nM | < 100 nM | COc1cc(C(=O)N(C)CCS(C)(=O)=O)ccc1-c1cc2nccc(-c3ccc(OC4CCOCC4)c(C#N)c3)c2o1 [Compound 483, 4-{7-[3-Cyano-4-(tetrahydro-pyran-4-yloxy)-phenyl]-furo[3,2-b]pyridin-2-yl}-N-(2-methanesulfonyl-ethyl)-3-methoxy-N-methyl-benzamide] | 
